pIC50: −log10 of the molar value. Where two headings read alike, the source gives them in different places.
Key:
[1] = test system: human breast cancer cells MDA-MB-231; assay: Scratching assay, migration of MDA-MB-231 (Example 14); format: cell-based; settings: 20 μmol/L, 0-24 h
Protocol: The inhibiting ability of 2-(4′-methyl-3′-nitrobenzoylamino)-3-indolylpropionic acid (TCI05), 2-(4′-methyl-3′-nitrobenzoylamino)-3-(4-hydroxy-phenyl) propionic acid (TCI06), 2-(4′-methyl-3′-nitrobenzenemethoxycarbonyl)-3-phenylpropionic acid (TCI07), 2-(4′-methyl-3′-nitrobenzenemethoxycarbonyl)-3-indolylpropionic acid (TCI08) for the migration of human breast cancer cells MDA-MB-231 was tested by scratching assay.
The MDA-MB-231 cells in logarithmic growth phase were seeded in the 6-well plate at a density of 1×10^6/3 ml, and 12 h later, TCI05, TCI06, TCI07, TCI08 (formulation was the same as TCI04) was added, 150 μl per well, with the final concentration of 20 μmol/L. The negative control was 150 μL sterilized water with 2% DMSO. 48 h later, 200 ul tips were used to scratch, and after washing 4 times with PBS, 3 ml medium without fetal bovine serum was added per well. Under the inverted microscope, the distance of cell migration was recorded every 3 h, and photos were taken at 0 h and 24 h.

MDA-MB-231 cells = assay: MTT assay, synergistic effect with Paclitaxel (Example 12); format: cell-based, human; settings: Homo sapiens
Protocol: Synergistic effects of (S)2-(4′-methyl-3′-nitrobenzoylamino)-3-phenylpropionic acid and Paclitaxel was tested by MTT assay.
1) The MDA-MB-231 cells in logarithmic growth phase were seeded in the 96-well plate at a density of 4×10^3/0.2 ml. After culturing for 12 h, 10 μl Paclitaxel solution was added, with the final concentration of 0, 0.001, 0.01, 0.1, 1, 10, 50, 100, 200 μM, then 10 μL (S)2-(4′-methyl-3′-nitrobenzoylamino)-3-phenylpropionic acid PBS solution was add to half of the wells for each group with the final concentration of 20 μM, followed by continuous culturing for 24 or 48 h.
2) 5 mg/mL MTT solution was prepared with sterilized PBS, filtered with 0.22 μm film, and diluted with medium to 1 mg/mL. After discarding the medium in the 96-well plate, 100 μL 1 mg/mL MTT working solution was added, followed by continuous culturing for 5 h.
3) MTT working solution was discarded, and 150 μL DMSO was added per well (note: to away from light). The plate was shaken on a horizontal shaker at 170 rpm for 10 min, and then the absorbance at 490 nm was detected by microplate reader.

4T1-luciferase cells = assay: In situ model of breast cancer in nude mouse, lung metastasis by in vivo imaging (Example 7); parameters: species or system nude mice; settings: 50 mg/kg tail vein, twice a day, 21 days; P<0.01
Protocol: 4) An in situ breast cancer model is constructed by in situ inoculating nude mice with 4T1 cells which are stably transfected with Luciferase, and the number of metastatic tumors on the lung is detected by in vivo imaging system. Such a model mimics the occurrence and metastasis of breast cancer.
The ability of (S)2-(4′-methyl-3′-nitrobenzoylamino)-3-phenylpropionic acid for inhibiting tumor metastasis in vivo was tested by in situ model of breast cancer in nude mouse.
1) Mice grouping: Nude female mice of SPF grade, 5 weeks old, 18˜22 g, 8 mice for each group;
2) The mother liquid of (S)2-(4′-methyl-3′-nitrobenzoylamino)-3-phenylpropionic acid (TCI04) for the dosage form administrated by intravenous injection was diluted to 2 mg/mL, 0.1 mg/mL by adding sterilized water. The dosage for administration in mice was as follows, high dosage of 20 mg/kg; low dosage of 1 mg/kg. […]
3) 4T1-luciferase cells in logarithmic growth phase were digested with 0.05% typsine for 1 min, after centrifugation at 1000 rpm for 5 min, the supernatant was discarded and the cells were resuspended and counted. […]
5) After the completion of the administration, the mice were detected by in vivo imaging system for the condition of tumor metastasis and immediately sacrificed; the lungs alone were detected by the in vivo imaging system for the light intensity to determine the number of tumor metastasis.

[2] = test system: human breast cancer cell MDA-MB-231; assay: Scratching assay, migration of MDA-MB-231 (Example 16); format: cell-based; settings: for average (scratch assay distance): control 13.1667
Protocol: The inhibiting ability of 4-hydroxy-3-nitrobenzoic acid and 4-amino-3nitrobenzoic acid for the migration of human breast cancer cell MDA-MB-231 was tested by scratching assay.
Three lines were marked on the underside of 6-well plate, MDA-MB-231 breast cancer cells in logarithmic growth phase were digested with 0.7 mL 0.08% trypsin for 1 min, and the digestion was stopped with complete culture medium. After centrifugation at 1000 r/min for 3 min, the supernatant was discarded, then 3 mL complete culture medium was added. After pipetting to make suspension of single cell, the cells in the cell suspension was counted, and the concentration of the cells was adjusted to a density of 5×10^5 cells/well to plate the 6 wells plate, and 6 groups of drugs containing complete culture medium (DMEM+10% FBS+1% Penicillin-Streptomycin+drug) were added. After culturing in a incubator for 12 h until the cells were attached, the culture medium was removed, 20 μL tips were used to scratch vertically to the three transverse lines on the underside to obtain 6 distances for counting, and after washing with phosphate buffered saline (PBS) three times, 6 groups of drugs containing culture medium without FBS (DMEM+drug) were added respectively, and the width of the scratches were observed and recorded at 0 h, 3 h, 6 h, 9 h, 12 h and 24 h under inverted microscope, with 6 distances being recorded per well, wherein, photos were taken with inverted microscope at 0 h and 24 h for recording.

2-(4′-methyl-3′-nitrobenzoylamino)-3-indolyl propionic acid [TCI05]
inhibition of migration ability (coalescence speed of cell scratch vs negative control) [1]: obviously inhibit

Cc1ccc(COC(=O)C(Cc2c[nH]c3ccccc23)C(=O)O)cc1[N+](=O)[O-] (stereo not shown) [TCI08, 2-(4′-methyl-3′-nitrobenzenemethoxycarbonyl)-3-indolylpropionic acid]
inhibition of migration ability (coalescence speed of cell scratch vs negative control) [1]: obviously inhibit

CC(=O)O[C@H]1C(=O)[C@@]2(C)[C@H]([C@H](OC(=O)c3ccccc3)[C@]3(O)C[C@H](OC(=O)[C@H](O)[C@@H](NC(=O)c4ccccc4)c4ccccc4)C(C)=C1C3(C)C)[C@]1(OC(C)=O)CO[C@@H]1C[C@@H]2O [Paclitaxel]
pIC50 (MDA-MB-231 cells; MDA-MB-231, 24 h, Paclitaxel + 20 μM (S)2-(4′-methyl-3′-nitrobenzoylamino)-3-phenylpropionic acid, read-out: IC50 after 24 h): 6.40 | pIC50 (MDA-MB-231 cells; MDA-MB-231, 24 h, Paclitaxel alone, read-out: IC50 after 24 h): 5.40 | pIC50 (MDA-MB-231 cells; MDA-MB-231, 48 h, Paclitaxel + 20 μM (S)2-(4′-methyl-3′-nitrobenzoylamino)-3-phenylpropionic acid, read-out: IC50 after 48 h): 7.34 | pIC50 (MDA-MB-231 cells; MDA-MB-231, 48 h, Paclitaxel alone, read-out: IC50 after 48 h): 6.29

Cc1ccc(COC(=O)C(Cc2ccccc2)C(=O)O)cc1[N+](=O)[O-] (stereo not shown) [TCI07, 2-(4′-methyl-3′-nitrobenzenemethoxycarbonyl)-3-phenylpropionic acid]
inhibition of migration ability (coalescence speed of cell scratch vs negative control) [1]: obviously inhibit

Cc1ccc(C(=O)O)cc1[N+](=O)[O-] [TCI01, 4-methyl-3-nitrobenzoic acid, reference compound]
light intensity of the whole lung vs negative control (4T1-luciferase cells): significantly weaker than the negative control

O=C(O)c1ccc(O)c([N+](=O)[O-])c1 [4-hydroxy-3-nitrobenzoic acid]
inhibition of migration ability (coalescence speed of cell scratch vs negative control) [2]: obviously inhibit | average (scratch assay distance) [2]: 8 10^−2 mm

Nc1ccc(C(=O)O)cc1[N+](=O)[O-] [4-amino-3-nitrobenzoic acid]
inhibition of migration ability (coalescence speed of cell scratch vs negative control) [2]: obviously inhibit | average (scratch assay distance) [2]: 8.1667 10^−2 mm

Cc1ccc(C(=O)NC(Cc2ccc(O)cc2)C(=O)O)cc1[N+](=O)[O-] (stereo not shown) [TCI06, 2-(4′-methyl-3′-nitrobenzoylamino)-3-(4-hydroxy-phenyl)propionic acid]
inhibition of migration ability (coalescence speed of cell scratch vs negative control) [1]: obviously inhibit

Source: patent US10512627B2, “Anti-tumor compound and the medical use thereof” (Tianjin Medical University Cancer Institute and Hospital, priority 2014, dated 2019)
